Values after ≈ are worked out from the molar mass of the structure shown. Values joined by “and” are separate entries in the source; they are usually repeats but may differ in a detail not shown here. Equal entries are not always repeated. Where two headings read alike, the source gives them in different places.
Columns and labels:
[1] = test system: M. tuberculosis Erdman pFCA-LuxAB (Erdman Lux); details: BALB/c mice, 300 mg/kg p.o. daily, 12 days
[2] = target: M. tuberculosis DNA gyrase (Mycobacterium tuberculosis, UniProt P9WG45+P9WG47); assay: biochemical; details: read-out: IC50, DNA gyrase supercoiling
Chain of M. tuberculosis DNA gyrase (P9WG45 whole entry): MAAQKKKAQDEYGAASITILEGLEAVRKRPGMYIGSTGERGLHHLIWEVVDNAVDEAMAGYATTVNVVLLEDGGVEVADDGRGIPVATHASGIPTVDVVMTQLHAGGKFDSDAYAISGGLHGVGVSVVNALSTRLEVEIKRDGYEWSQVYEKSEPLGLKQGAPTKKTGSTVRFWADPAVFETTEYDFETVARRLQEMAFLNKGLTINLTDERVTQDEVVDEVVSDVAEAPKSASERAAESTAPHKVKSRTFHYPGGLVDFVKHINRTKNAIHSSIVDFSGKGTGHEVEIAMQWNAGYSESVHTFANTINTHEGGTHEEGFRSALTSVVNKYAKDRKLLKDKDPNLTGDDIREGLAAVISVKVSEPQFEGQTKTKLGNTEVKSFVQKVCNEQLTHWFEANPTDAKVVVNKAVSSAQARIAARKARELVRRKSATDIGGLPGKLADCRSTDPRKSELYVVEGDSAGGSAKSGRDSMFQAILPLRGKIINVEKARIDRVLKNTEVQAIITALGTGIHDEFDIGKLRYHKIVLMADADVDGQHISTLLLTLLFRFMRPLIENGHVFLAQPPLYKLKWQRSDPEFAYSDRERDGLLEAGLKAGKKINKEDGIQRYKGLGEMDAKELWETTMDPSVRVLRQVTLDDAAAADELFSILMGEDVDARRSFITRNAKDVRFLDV
Chain of M. tuberculosis DNA gyrase (P9WG47 whole entry): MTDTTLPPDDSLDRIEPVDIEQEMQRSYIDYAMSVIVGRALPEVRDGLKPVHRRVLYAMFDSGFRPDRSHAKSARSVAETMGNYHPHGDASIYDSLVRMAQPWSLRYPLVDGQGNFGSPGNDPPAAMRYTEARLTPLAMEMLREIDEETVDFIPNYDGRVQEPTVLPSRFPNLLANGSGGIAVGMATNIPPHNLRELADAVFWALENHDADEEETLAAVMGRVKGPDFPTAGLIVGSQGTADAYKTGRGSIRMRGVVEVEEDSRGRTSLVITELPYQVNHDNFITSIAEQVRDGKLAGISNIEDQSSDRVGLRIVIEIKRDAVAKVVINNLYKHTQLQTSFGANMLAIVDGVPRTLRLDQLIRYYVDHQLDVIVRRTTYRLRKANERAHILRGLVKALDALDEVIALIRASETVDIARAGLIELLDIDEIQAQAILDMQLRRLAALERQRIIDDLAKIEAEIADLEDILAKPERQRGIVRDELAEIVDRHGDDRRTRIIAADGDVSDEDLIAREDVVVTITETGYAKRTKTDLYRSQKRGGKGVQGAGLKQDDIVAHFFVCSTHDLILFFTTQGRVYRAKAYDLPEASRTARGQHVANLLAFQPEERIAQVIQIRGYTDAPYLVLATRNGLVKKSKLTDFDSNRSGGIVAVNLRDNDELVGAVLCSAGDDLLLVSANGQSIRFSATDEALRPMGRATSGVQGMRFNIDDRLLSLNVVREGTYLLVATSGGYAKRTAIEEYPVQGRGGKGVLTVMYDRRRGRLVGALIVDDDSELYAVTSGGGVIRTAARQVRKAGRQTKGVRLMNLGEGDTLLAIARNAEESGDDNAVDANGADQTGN

[3] = test system: M. tuberculosis expressing DsRed in murine RAW 264.7 cells; assay: microbe, parasite or virus in culture; type: cell-based; details: for IC50: RAW 264.7, 72 h exposure, read-out: IC50, intracellular M. tuberculosis in murine macrophages
in vitro [4] = details: mouse, plasma
M. tuberculosis H37Rv [5] = assay: microbe, parasite or virus in culture; type: cell-based; details: Mycobacterium tuberculosis, 168 h
murine RAW 264.7 cells = type: cell-based; details: highest concentration tested
in vivo [6] = details: BALB/c, mouse, 300 mg/kg
M. tuberculosis H37Rv [7] = assay: microbe, parasite or virus in culture; type: cell-based; details: Mycobacterium tuberculosis, read-out: MIC90, H37Rv
[8] = test system: iniB promoter reporter in M. tuberculosis H37Rv; type: cell-based, Mycobacterium tuberculosis
[9] = test system: recA promoter reporter in M. tuberculosis H37Rv; type: cell-based, Mycobacterium tuberculosis
in vivo [10] = details: male, mouse
H37Rv (RecA) = type: cell-based, Mycobacterium tuberculosis
M. tuberculosis H37Rv [11] = assay: MIC against M. tuberculosis H37Rv in 7H9 medium with various supplements; type: cell-based, Mycobacterium tuberculosis; details: for MIC: Mycobacterium tuberculosis, H37RV
[12] = test system: replicating M. tuberculosis H37Rv; type: cell-based; details: 1× MIC
S. aureus = details: cited from earlier work
[13] = for Average Conc. Found in plasma: infected BALB/c mice
N. gonorrhoeae = details: cited from earlier work
in vitro [14] = details: human, plasma
Excerpt: (§1) Aiming to identify a compound to progress to in vivo efficacy studies, compounds were profiled for physicochemical properties, PK, and safety.

S. pneumoniae = details: cited from earlier work
[15] = test system: mouse lymphoma assay (micronucleation aberrations); details: highest concentration tested; cited from earlier work
physchem = details: pH 6.5
Excerpt: as §1

M. tuberculosis Erdman = assay: microbe, parasite or virus in culture; type: cell-based; details: Mycobacterium tuberculosis, read-out: MIC against the Erdman strain with 4% human serum albumin, 7H9 medium-ADC-glycerol plus 4% human serum albumin

Q: Which “tolerability” value [1] does the source give for Cc1nnc(-c2noc3c(F)c4c(cc23)CC2(C(=O)NC(=O)NC2=O)[C@H]2[C@H](C)O[C@H](C)CN42)o1 [Compound 22] here?
A: The value was “generally well tolerated”.

Q: What about the IC50 [2] of the same molecule?
A: The IC50 was 2 µM.

Q: And the “macrophage IC50 higher than the average in vitro broth MIC” value [3]?
A: The value was “less than 3 fold”.

Q: And the IC50 ([3]; Mycobacterium tuberculosis, RAW264.7, 72 h)?
A: The IC50 was 6.3 µM.

Q: And the IC50 [3]?
A: Its IC50 is 6 µM.

Q: And the fraction unbound (in vitro [4])?
A: Its fraction unbound is 0.068.

Q: What about the MIC (M. tuberculosis H37Rv [5]; H37Rv, 7 days, Middlebrook 7H9 with OADC and glycerol, read-out: MIC (dose-response)) of the same molecule?
A: Its MIC is 7.26 µM (≈ 3.42 µg/mL).

Q: And the MBC (M. tuberculosis H37Rv [5]; H37RV, CARA, transfer to charcoal agar, additional 7 days)?
A: Its MBC is 15.6 µM (≈ 7.34 µg/mL).

Q: And the “toxicity against the macrophage cell line” value (murine RAW 264.7 cells)?
A: The value was greater than 100 µM.

Q: And the Cmax (in vivo [6])?
A: Its Cmax is 165 ± 58 µg/mL.

Q: What about the MIC90 (M. tuberculosis H37Rv [7]) of the same molecule?
A: Its MIC90 is 1 µM (≈ 0.47 µg/mL).

Q: What about the “bioluminescence response in PiniB-LUX assay” value [8] of the same molecule?
A: Its value is “none of the DNA gyrase inhibitors, including 22, elicited a strong bioluminescence response”.

Q: And the “concentration of maximal effect in PrecA-LUX assay” value ([9]; at 7 days)?
A: The value was 0.4 µM.

Q: And the “bioluminescence response in PrecA-LUX assay” value ([9]; over 7 days)?
A: Its value is “strong bioluminescence signal”.

Q: And the AUC(0-inf) (in vivo [10]; iv, 2 mg/kg)?
A: Its AUC(0-inf) is 2.37 µg·h/mL.

Q: What about the Vd (in vivo [10]; iv, 2 mg/kg) of the same molecule?
A: Its Vd is 5.1 L/kg.

Q: What about the clearance (in vivo [10]; iv, 2 mg/kg) of the same molecule?
A: Its clearance is 14.3 mL/min/kg.

Q: What about the half-life (in vivo [10]; iv, 2 mg/kg) of the same molecule?
A: The half-life was 3.7 h.

Q: And the AUC(0-inf) (in vivo [10]; po, 20 mg/kg)?
A: Its AUC(0-inf) is 24.6 µg·h/mL.

Q: And the Cmax (in vivo [10]; po, 20 mg/kg)?
A: The Cmax was 9.5 µg/mL.

Q: What about the Tmax (in vivo [10]; po, 20 mg/kg) of the same molecule?
A: Its Tmax is 1 h.

Q: What about the bioavailability (in vivo [10]; po, 20 mg/kg) of the same molecule?
A: Its bioavailability is 104%.

Q: What about the AUC(0-inf) (in vivo [10]; po, 100 mg/kg) of the same molecule?
A: Its AUC(0-inf) is 343 µg·h/mL.

Q: What about the Cmax (in vivo [10]; po, 100 mg/kg) of the same molecule?
A: Its Cmax is 47 µg/mL.

Q: What about the Tmax (in vivo [10]; po, 100 mg/kg) of the same molecule?
A: Its Tmax is 2.8 h.

Q: What about the AUC(0-inf) (in vivo [10]; po, 300 mg/kg) of the same molecule?
A: The AUC(0-inf) was 1270 µg·h/mL.

Q: And the Cmax (in vivo [10]; po, 300 mg/kg)?
A: The Cmax was 133 µg/mL.

Q: And the Tmax (in vivo [10]; po, 300 mg/kg)?
A: The Tmax was 1 h.

Q: And the AUC(0-inf) (in vivo [10]; po, 500 mg/kg)?
A: Its AUC(0-inf) is 1440 µg·h/mL.

Q: What about the Cmax (in vivo [10]; po, 500 mg/kg) of the same molecule?
A: Its Cmax is 117 µg/mL.

Q: And the Tmax (in vivo [10]; po, 500 mg/kg)?
A: The Tmax was 0.83 h.

Q: And the “PrecA-LUX MIC” value (H37Rv (RecA))?
A: The value was ~ 3.9 μM.

Q: What about the “antibacterial activity in culture lower than moxifloxacin” value (M. tuberculosis H37Rv [11]) of the same molecule?
A: The value was 8 fold.

Q: And the MIC (M. tuberculosis H37Rv [11]; read-out: MIC, ADC/GLU/TW)?
A: The MIC was 1.7 µM (≈ 0.8 µg/mL).

Q: What about the MIC (M. tuberculosis H37Rv [11]; read-out: MIC, DPPC/CAS/TX) of the same molecule?
A: The MIC was 5.2 µM (≈ 2.45 µg/mL).

Q: And the MIC (M. tuberculosis H37Rv [11]; read-out: MIC, DPPC/Chol/BSA/TX)?
A: Its MIC is 2.9 µM (≈ 1.36 µg/mL).

Q: And the MIC (M. tuberculosis H37Rv [11]; read-out: MIC, GLU/BSA/TX)?
A: Its MIC is 3 µM (≈ 1.41 µg/mL).

Q: What about the MIC (M. tuberculosis H37Rv [11]; read-out: MIC, GLU/CAS/TX) of the same molecule?
A: The MIC was 2.6 µM (≈ 1.22 µg/mL).

Q: What about the “time to 3-log kill” value [12] of the same molecule?
A: The value was 7 days.

Q: What about the “MIC against S. aureus” value (S. aureus) of the same molecule?
A: Its value is 0.5 µM (≈ 0.235 µg/mL).

Q: And the “Found Concentration in plasma, single mice” value ([13]; infected BALB/c mice A, B, C, 300 mg/kg QD, 1 hr post dose, 300 mg/kg)?
A: Its value is 229000 ng/mL and 117000 ng/mL and 148000 ng/mL.

Q: And the “Average Conc. Found in plasma” value ([13]; 300 mg/kg QD, 1 hr post dose)?
A: Its value is 165000 ng/mL.

Q: What about the “Average Conc. Found in plasma” value ([13]; 300 mg/kg QD, 24 hr post dose) of the same molecule?
A: Its value is 6100 ng/mL.

Q: And the “free drug concentration over the MIC” value ([13]; predicted from PK in healthy mice, for over 8 h)?
A: The value was “about 2 fold”.

Q: And the “MIC against N. gonorrhoeae” value (N. gonorrhoeae)?
A: The value was 2.0 µM (≈ 0.941 µg/mL).

Q: And the fraction unbound (in vitro [14])?
A: The fraction unbound was 0.15.

Q: What about the “MIC against S. pneumoniae” value (S. pneumoniae) of the same molecule?
A: Its value is 0.25 µM (≈ 0.118 µg/mL).

Q: And the “genotoxicity in the MLA” value [15]?
A: The value was “no genotoxicity at the highest concentration tested”.

Q: What about the solubility thermodynamic (physchem) of the same molecule?
A: Its solubility thermodynamic is 140 µM (≈ 65.9 µg/mL).

Q: What about the MIC (M. tuberculosis Erdman) of the same molecule?
A: Its MIC is 16 µM.
